# In patent US20220340597A1, “HEXAHYDRO-1H-PYRAZINO[1,2-A]PYRAZINE COMPOUNDS FOR THE TREATMENT OF AUTOIMMUNE DISEASE” (Hoffmann-La Roche Inc., priority 2019, published 2022):
# Molecular target: T1, human TLR7 (Homo sapiens, UniProt Q9NYK1)
# T1 construct: host or cells: HEK293 (HEK-Blue hTLR7)
# T1 sequence (Q9NYK1 27-1049): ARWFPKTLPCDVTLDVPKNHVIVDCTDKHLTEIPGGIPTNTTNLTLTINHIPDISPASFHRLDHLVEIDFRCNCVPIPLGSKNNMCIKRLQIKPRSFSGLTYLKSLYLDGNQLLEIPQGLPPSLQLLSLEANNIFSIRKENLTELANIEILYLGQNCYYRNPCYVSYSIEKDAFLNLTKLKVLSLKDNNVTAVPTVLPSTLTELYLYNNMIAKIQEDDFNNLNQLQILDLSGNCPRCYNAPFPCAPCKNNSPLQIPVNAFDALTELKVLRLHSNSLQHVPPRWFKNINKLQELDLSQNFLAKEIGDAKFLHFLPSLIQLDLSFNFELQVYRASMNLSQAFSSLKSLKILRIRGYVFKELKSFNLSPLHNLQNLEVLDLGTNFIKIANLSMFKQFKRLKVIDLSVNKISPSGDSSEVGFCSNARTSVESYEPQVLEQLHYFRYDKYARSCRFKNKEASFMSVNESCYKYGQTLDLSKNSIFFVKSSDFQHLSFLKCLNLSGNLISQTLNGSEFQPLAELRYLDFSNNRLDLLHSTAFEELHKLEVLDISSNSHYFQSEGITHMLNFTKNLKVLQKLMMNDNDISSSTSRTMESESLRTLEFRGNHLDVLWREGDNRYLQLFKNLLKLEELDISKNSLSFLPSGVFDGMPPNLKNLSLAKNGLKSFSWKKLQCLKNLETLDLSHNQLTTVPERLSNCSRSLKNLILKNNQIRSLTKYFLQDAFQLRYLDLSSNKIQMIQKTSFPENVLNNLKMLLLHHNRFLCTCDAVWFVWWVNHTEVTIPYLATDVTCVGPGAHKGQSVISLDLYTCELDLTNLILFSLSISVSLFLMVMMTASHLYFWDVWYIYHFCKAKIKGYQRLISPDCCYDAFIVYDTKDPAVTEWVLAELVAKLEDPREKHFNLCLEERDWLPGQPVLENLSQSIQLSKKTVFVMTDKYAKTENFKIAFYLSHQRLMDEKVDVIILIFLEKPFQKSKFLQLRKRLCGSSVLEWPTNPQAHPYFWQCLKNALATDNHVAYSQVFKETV
# Test: HEK293-Blue-hTLR-7 cells assay
# Type: cell-based
# Details: HEK293-Blue-hTLR7 cells, R848 stimulation, 20 hrs, SEAP reporter; read-out: HEK/hTLR7 IC50
# Experimental: The following tests were carried out in order to determine the activity of the compounds of formula (I) and (Ia) in HEK293-Blue-hTLR-7/8/9 cells assay.
# HEK293-Blue-hTLR-7 cells assay:
# A stable HEK293-Blue-hTLR-7 cell line was purchased from InvivoGen (Cat. #: hkb-htlr7, San Diego, Calif., USA). These cells were originally designed for studying the stimulation of human TLR7 by monitoring the activation of NF-κB. A SEAP (secreted embryonic alkaline phosphatase) reporter gene was placed under the control of the […] minimal promoter fused to five NF-κB and AP-1-binding sites. The SEAP was induced by activating NF-κB and AP-1 via stimulating HEK-Blue hTLR7 cells with TLR7 ligands. Therefore, the reporter expression was declined by TLR7 antagonist under the stimulation of a ligand, such as R848 (Resiquimod), for incubation of 20 hrs. The cell culture supernatant SEAP reporter activity was determined using QUANTI-Blue™ kit (Cat. #: rep-qb1, Invivogen, San Diego, Calif., USA) at a wavelength of 640 nm, a detection medium that turns purple or blue in the presence of alkaline phosphatase.
# Then 20 μL of the supernatant from each well was incubated with […] Quanti-blue substrate solution at 37° C. for 2 hrs and the absorbance was read at 620-655 nm using a spectrophotometer. The signaling pathway that TLR7 activation leads to downstream NF-κB activation has been widely accepted, and therefore similar reporter assay was modified for evaluating TLR7 antagonist.
row,Compound,IC50 [nM]
1,"N#Cc1ccc(N2CCN3CCN(c4cccc5c4CNC5)CC3C2)c2cccnc12 (stereo not shown) [Example 35, 5-(8-isoindolin-4-yl-3,4,6,7,9,9a-hexahydro-1H-pyrazino[1,2-a]pyrazin-2-yl)quinoline-8-carbonitrile]",29
2,"C[C@@H]1CN(c2ccc(C#N)c3ncccc23)C[C@@H]2CN(c3ccnc(N4CCNCC4)c3)CCN21 [Example 32, 5-[(4R,9aS)-4-methyl-8-(2-piperazin-1-yl-4-pyridyl)-3,4,6,7,9,9a-hexahydro-1H-pyrazino[1,2-a]pyrazin-2-yl]quinoline-8-carbonitrile]",16
3,"CO[C@H]1CN(c2ccc(CCN3CCN4[C@@H](C3)CN(c3ccc(C#N)c5ncccc35)C[C@H]4C)cn2)C[C@H]1N [Example 24, 5-[(4R,9aS)-8-[2-[6-[(3R,4S)-3-amino-4-methoxy-pyrrolidin-1-yl]-3-pyridyl]ethyl]-4-methyl-3,4,6,7,9,9a-hexahydro-1H-pyrazino[1,2-a]pyrazin-2-yl]quinoline-8-carbonitrile]",8
4,"CO[C@@H]1CN(c2ccc(CCN3CCN4[C@@H](C3)CN(c3ccc(C#N)n5nccc35)C[C@H]4C)cc2)C[C@H]1N [Example 68, 4-[(4R,9aS)-8-[2-[4-[(3R,4R)-3-amino-4-methoxy-pyrrolidin-1-yl]phenyl]ethyl]-4-methyl-3,4,6,7,9,9a-hexahydro-1H-pyrazino[1,2-a]pyrazin-2-yl]pyrazolo[1,5-a]pyridine-7-carbonitrile]",53
5,"Cc1cnc(N2CCN3[C@@H](C2)CN(c2ccc(C#N)c4ncccc24)C[C@H]3C)nc1N1CCNCC1 [Example 43, 5-[(4R,9aR)-4-methyl-8-(5-methyl-4-piperazin-1-yl-pyrimidin-2-yl)-3,4,6,7,9,9a-hexahydro-1H-pyrazino[1,2-a]pyrazin-2-yl]quinoline-8-carbonitrile]",9
6,"C[C@H]1CN(c2ccc(C#N)c3ncccc23)C[C@@H]2CN(c3ccc([C@@H]4CNCCO4)cc3)CCN21 [Example 125, 5-[(4S,9aS)-4-methyl-8-[4-[(2R)-morpholin-2-yl]phenyl]-3,4,6,7,9,9a-hexahydro-1H-pyrazino[1,2-a]pyrazin-2-yl]quinoline-8-carbonitrile]",1
7,"[2H]c1ccc2c(N3C[C@@H]4CN(c5ncc(C(=O)N6CC7(CN(C)C7)C6)cc5C)CCN4[C@H](C)C3)ccc(C#N)c2n1 [Example 102, 5-[(4R,9aR)-4-methyl-8-[3-methyl-5-(6-methyl-2,6-diazaspiro[3.3]heptane-2-carbonyl)-2-pyridyl]-3,4,6,7,9,9a-hexahydro-1H-pyrazino[1,2-a]pyrazin-2-yl]-2-deuterio-quinoline-8-carbonitrile]",4
8,"C[C@@H]1CN(c2ccc(C#N)n3ncc(F)c23)C[C@@H]2CN(CCc3ccc(N4CC(C)(N)C4)nc3)CCN21 [Example 74, 4-[(4R,9aS)-8-[2-[6-(3-amino-3-methyl-azetidin-1-yl)-3-pyridyl]ethyl]-4-methyl-3,4,6,7,9,9a-hexahydro-1H-pyrazino[1,2-a]pyrazin-2-yl]-3-fluoro-pyrazolo[1,5-a]pyridine-7-carbonitrile]",28
9,"C[C@@H]1CN(c2ccc(C#N)c3ncccc23)C[C@@H]2CN(c3ccnc(N4C[C@@H](F)[C@@H](N)C4)c3)CCN21 [Example 40, 5-[(4R,9aS)-8-[2-[(3S,4R)-3-amino-4-fluoro-pyrrolidin-1-yl]-4-pyridyl]-4-methyl-3,4,6,7,9,9a-hexahydro-1H-pyrazino[1,2-a]pyrazin-2-yl]quinoline-8-carbonitrile]",7
10,"C[C@@H]1CN(c2ccc(C#N)c3ncccc23)C[C@@H]2CN(Cc3cnc4c(c3)CNCC4)CCN21 [Example 6, 5-[(4R,9aS)-4-methyl-8-(5,6,7,8-tetrahydro-1,6-naphthyridin-3-ylmethyl)-3,4,6,7,9,9a-hexahydro-1H-pyrazino[1,2-a]pyrazin-2-yl]quinoline-8-carbonitrile]",14
